26 compounds from the NIST ThermoML archive (doi:10.1021/je9009283) can be followed below.

Numbers after ± are expanded uncertainties.

A word on the mass density: it is the mass of a sample divided by its volume. The term refractive index denotes a measure of how strongly the sample bends light.

For data set [1] the following is noted: for mass density: 293.1 K, 101.33 kPa, Liquid, Pycnometric method; for Glass transition temperature / Normal melting temperature: DTA; for Normal melting temperature: Crystal.
Data set [2] is described as follows: refractive index (Na D-line) (dimensionless). The following applies: 293.1 K; 101.33 kPa; Liquid; Standard Abbe refractometry.
A short description of data set [3]: Molar enthalpy of transition or fusion. The following applies: Crystal; DSC.

On to `CCCC[n+]1cccc(C)c1C.O=S(=O)([N-]S(=O)(=O)C(F)(F)F)C(F)(F)F`, for which, in data set [1], the mass density is 1370 ± 20 kg/m3 and the Glass transition temperature is -81.0 ± 2 °C. Moreover, the refractive index in data set [2] turned out to be 1.4497 ± 0.0016.

On to `CCCC[n+]1cccc(C)c1C.O=S(=O)([O-])C(F)(F)F`, for which, in data set [1], the mass density was 1370 ± 20 kg/m3, the Normal melting temperature was found to be 17.0 ± 2 °C and the Glass transition temperature was -69.0 ± 2 °C. The “Molar enthalpy of transition or fusion” value in data set [3] came to 4.03 ± 0.139 kcal/mol. For the same compound, the refractive index in data set [2] stood at 1.4748 ± 0.0016.

With `CCCCCCCC[n+]1cccc(C)c1C.N#C[S-]` [2,3-dimethyl-1-octylpyridinium thiocyanate], in data set [1], the mass density is 1020 ± 20 kg/m3 and the Glass transition temperature was -65.0 ± 2 °C. Besides, the refractive index in data set [2] was 1.5489 ± 0.0016.

Regarding `CCCCCCCC[n+]1cc(C)cc(C)c1.F[B-](F)(F)F` [3,5-dimethyl-1-octylpyridinium tetrafluoroborate], in data set [1], the Normal melting temperature came to 56.0 ± 2 °C. Further, the “Molar enthalpy of transition or fusion” value in data set [3] stood at 6.71 ± 0.201 kcal/mol.

As to `CCCCCCCC[n+]1cc(CC)ccc1C.[I-]` [5-ethyl-2-methyl-1-octylpyridinium iodide], in data set [1], the Normal melting temperature worked out at 87.0 ± 2 °C and the Glass transition temperature was -33.0 ± 2 °C. For the same compound, the “Molar enthalpy of transition or fusion” value in data set [3] amounted to 7.38 ± 0.217 kcal/mol.

As for `CCCCCCCC[n+]1cc(C)cc(C)c1.N#C[N-]C#N` [3,5-dimethyl-1-octylpyridinium dicyanamide], in data set [1], the mass density was determined as 1000 ± 20 kg/m3 and the Glass transition temperature was -78.0 ± 2 °C. In data set [2], the refractive index came out at 1.5196 ± 0.0016.

As to `CCCCCCCC[n+]1cc(C)cc(C)c1.N#C[S-]` [3,5-dimethyl-1-octylpyridinium thiocyanate], in data set [1], the mass density was 1000 ± 20 kg/m3, the Normal melting temperature is -38.0 ± 2 °C and the Glass transition temperature is -74.0 ± 2 °C. In addition, the “Molar enthalpy of transition or fusion” value in data set [3] stood at 1.53 ± 0.086 kcal/mol. For the same compound, in data set [2], the refractive index is 1.5415 ± 0.0016.

As for `CCCCCCCC[n+]1cc(C)cc(C)c1C.[I-]` [2,3,5-trimethyl-1-octylpyridinium iodide], the Glass transition temperature in data set [1] is -31.0 ± 2 °C. The refractive index in data set [2] came to 1.5776 ± 0.0016.

Regarding `CCCCCCCC[n+]1cc(CC)ccc1C.O=S(=O)([N-]S(=O)(=O)C(F)(F)F)C(F)(F)F`, in data set [1], the mass density is 1280 ± 20 kg/m3 and the Glass transition temperature was -78.0 ± 2 °C.

Consider `CCCC[n+]1cc(C)cc(C)c1.O=S(=O)([O-])C(F)(F)F`, for which, in data set [1], the mass density came out at 1390 ± 20 kg/m3 and the Normal melting temperature stood at 91.0 ± 2 °C. Also, the “Molar enthalpy of transition or fusion” value in data set [3] is 6.81 ± 0.203 kcal/mol.

Consider `CCCC[n+]1cc(CC)ccc1C.O=S(=O)([N-]S(=O)(=O)C(F)(F)F)C(F)(F)F`, for which, in data set [1], the mass density turned out to be 1370 ± 20 kg/m3 and the Glass transition temperature was -81.0 ± 2 °C. The refractive index in data set [2] turned out to be 1.4552 ± 0.0016.

Consider `CCCCCCCC[n+]1cc(C)cc(C)c1C.N#C[S-]` [2,3,5-trimethyl-1-octylpyridinium thiocyanate], for which, in data set [1], the Normal melting temperature was 20.0 ± 2 °C and the Glass transition temperature is -58.0 ± 2 °C. Moreover, in data set [3], the “Molar enthalpy of transition or fusion” value was found to be 3.5 ± 0.127 kcal/mol.

`CCCC[n+]1cc(C)cc(C)c1.N#C[S-]` [1-butyl-3,5-dimethylpyridinium thiocyanate]: in data set [1], the Normal melting temperature was 13.0 ± 2 °C and the Glass transition temperature is -57.0 ± 2 °C. Besides, the “Molar enthalpy of transition or fusion” value in data set [3] stood at 3.83 ± 0.134 kcal/mol.

For `CCCCCCCC[n+]1cc(C)cc(C)c1.[I-]` [3,5-dimethyl-1-octylpyridinium iodide], in data set [1], the Normal melting temperature was 82.0 ± 2 °C and the Glass transition temperature was -41.0 ± 2 °C. Moreover, the “Molar enthalpy of transition or fusion” value in data set [3] worked out at 6.08 ± 0.186 kcal/mol.

Take `CCCCCCCC[n+]1cc(C)cc(C)c1.O=S(=O)([O-])C(F)(F)F`: the Normal melting temperature in data set [1] was found to be 76.0 ± 2 °C. Also, the “Molar enthalpy of transition or fusion” value in data set [3] was found to be 5.93 ± 0.182 kcal/mol.

Turning to `CCCCCCCC[n+]1cc(C)cc(C)c1.O=S(=O)([N-]S(=O)(=O)C(F)(F)F)C(F)(F)F`, in data set [1], the mass density was determined as 1280 ± 20 kg/m3 and the Glass transition temperature is -78.0 ± 2 °C. In addition, in data set [2], the refractive index came out at 1.4526 ± 0.01.

Consider `CCCCCCCC[n+]1cc(C)cc(C)c1C.O=S(=O)([N-]S(=O)(=O)C(F)(F)F)C(F)(F)F`, for which, in data set [1], the mass density is listed as 1280 ± 20 kg/m3 and the Glass transition temperature is -72.0 ± 2 °C. Also, the refractive index in data set [2] is given as 1.4617 ± 0.0016.

For `CCCCCCCC[n+]1cc(C)cc(C)c1C.O=S(=O)([O-])C(F)(F)F`, the Glass transition temperature in data set [1] was -56.0 ± 2 °C.

For `CCCCCCCC[n+]1cccc(C)c1C.O=S(=O)([O-])C(F)(F)F`, in data set [1], the mass density is listed as 1180 ± 20 kg/m3 and the Glass transition temperature is -63.0 ± 2 °C. Besides, the refractive index in data set [2] amounted to 1.4725 ± 0.0016.

Consider `CCCC[n+]1cc(C)cc(C)c1.O=S(=O)([N-]S(=O)(=O)C(F)(F)F)C(F)(F)F`, for which, in data set [1], the mass density is given as 1390 ± 20 kg/m3 and the Glass transition temperature was -73.0 ± 2 °C. Besides, the refractive index in data set [2] came out at 1.4559 ± 0.0016.

In the case of `CCCCCCCC[n+]1cccc(C)c1C.O=S(=O)([N-]S(=O)(=O)C(F)(F)F)C(F)(F)F`, in data set [1], the mass density is 1290 ± 20 kg/m3 and the Glass transition temperature was -70.0 ± 2 °C. In addition, the refractive index in data set [2] worked out at 1.4571 ± 0.01.

As for `CCCCCCCC[n+]1cc(CC)ccc1C.N#C[N-]C#N` [5-ethyl-2-methyl-1-octylpyridinium dicyanamide], in data set [1], the Normal melting temperature is 53.0 ± 2 °C and the Glass transition temperature is -59.0 ± 2 °C.

As to `CCCC[n+]1cc(C)cc(C)c1C.O=S(=O)([O-])C(F)(F)F`, in data set [1], the Normal melting temperature turned out to be 74.0 ± 2 °C. For the same compound, the “Molar enthalpy of transition or fusion” value in data set [3] came out at 5.01 ± 0.16 kcal/mol.

Consider `CCCC[n+]1cccc(C)c1C.N#C[N-]C#N` [1-butyl-2,3-dimethylpyridinium dicyanamide], for which the Glass transition temperature in data set [1] was -72.0 ± 2 °C. Moreover, in data set [2], the refractive index worked out at 1.5403 ± 0.0016.

`CCCC[n+]1cc(C)cc(C)c1.N#C[N-]C#N` [1-butyl-3,5-dimethylpyridinium dicyanamide]: in data set [1], the Normal melting temperature was -1.0 ± 2 °C and the Glass transition temperature was -80.0 ± 2 °C. For the same compound, in data set [3], the “Molar enthalpy of transition or fusion” value came to 0.92 ± 0.0765 kcal/mol. In data set [2], the refractive index is 1.5278 ± 0.0016.

For the compound `CCCC[n+]1cc(C)cc(C)c1C.O=S(=O)([N-]S(=O)(=O)C(F)(F)F)C(F)(F)F`, in data set [1], the mass density worked out at 1370 ± 20 kg/m3 and the Glass transition temperature is -74.0 ± 2 °C. Moreover, the refractive index in data set [2] was 1.4583 ± 0.0016.
